From US11072634B2, “Inhibitors of transglutaminases” (Zedira GmbH, priority 2016, dated 2021)

Key:
TG2 = target: T1, TG2 (Rattus norvegicus, UniProt Q9WVJ6); assay: TG2 activity in NRK52E cell homogenates (Tissue Transglutaminase Pico-Assay Kit); type: cell-based; details: 6/24/36 mM glucose, 10-100 μM inhibitor
T1 construct: endogenous in cells; host or cells: NRK52E
T1 sequence (Q9WVJ6 1-686): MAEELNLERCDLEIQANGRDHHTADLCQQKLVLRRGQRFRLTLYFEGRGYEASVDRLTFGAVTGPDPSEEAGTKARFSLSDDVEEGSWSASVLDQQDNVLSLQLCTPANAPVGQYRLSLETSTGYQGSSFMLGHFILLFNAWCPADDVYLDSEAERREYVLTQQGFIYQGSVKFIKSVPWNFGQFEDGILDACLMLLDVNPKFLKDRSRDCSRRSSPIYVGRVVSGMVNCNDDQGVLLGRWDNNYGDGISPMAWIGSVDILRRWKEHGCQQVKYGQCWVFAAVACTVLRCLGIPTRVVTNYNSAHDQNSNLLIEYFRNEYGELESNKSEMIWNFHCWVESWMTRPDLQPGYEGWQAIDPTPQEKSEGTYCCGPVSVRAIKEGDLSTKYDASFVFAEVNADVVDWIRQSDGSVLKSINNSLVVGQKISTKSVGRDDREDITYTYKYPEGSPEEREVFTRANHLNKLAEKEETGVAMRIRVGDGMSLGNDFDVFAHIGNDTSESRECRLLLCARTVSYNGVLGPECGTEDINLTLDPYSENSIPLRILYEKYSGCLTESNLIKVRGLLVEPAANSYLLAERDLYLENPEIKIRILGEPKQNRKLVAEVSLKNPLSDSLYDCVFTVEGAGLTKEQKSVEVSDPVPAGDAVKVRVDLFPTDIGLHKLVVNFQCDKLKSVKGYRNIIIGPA
Description: Fibrosis is a hallmark in diabetic nephropathy and chronic kidney diseases. Proximal tubular epithelial cells show increased TG2 activity and increased extracellular matrix proteins (ECM) accumulation under hyperglycemic conditions. ECM accumulation is a hall mark of fibrosis. […] TG2-activity and ECM-accumulation was measured. Rattus norvegicus kidney derived cell line NRK52E was grown at 37° C. in a humidified atmosphere at 5% (v/v) CO2 in DMEM (Dulbecco's modified Eagle's medium) containing 100 μg/mL streptomycin, 100 units/ml penicillin, […], and 10% (v/v) fetal calf serum. For simulation of normal physiological conditions 6 mM D-glucose were added to the medium, while addition of 24 mM and 36 mM D-glucose simulated hyperglycemic conditions. Reversible TG2 inhibitor E06 in the concentrations indicated in FIG. 1A was added at the time of plating to the medium. Reversible TG2 inhibitor E22 in the concentrations indicated in FIG. 2A was added at the time of plating to the medium.
TG2-activity was determined in cell homogenates. […]
TG2-activity was measured using the TG2-selective Tissue Transglutaminase Pico-Assay Kit (#M003, Zedira, Darmstadt, Germany) according to the manufacturer's instructions. […]

CaCo2 and Huh7 cells = assay: Cytotoxicity of transglutaminase inhibitors (BrdU and EZ4U); type: cell-based, human; details: highest concentration measured 1 mM
Description: The following cell lines are used for determination of cytotoxicity: • CaCo2 (human colon carcinoma cell line) • Huh7 (human liver carcinoma cell line).
Cells are cultivated in DMEM/10% FCS at 37° C. and 5% CO2 in a 96 well plate with an initial seeding density of 2×10^4 cells/well.
Transglutaminase inhibitors are added to the cells with final concentrations from 0.1 μM to 1 mM one hour after seeding. The different inhibitor dilutions are prepared in DMSO, resulting in a final concentration of 1% (v/v) DMSO in every well (2 μl inhibitor in 200 μl cell culture medium). Cycloheximide (2.5 μg/ml) and Camptothecin (0.2 μg/ml) are used as control compounds. All measurements are performed in triplicates.
Cytotoxicity of transglutaminase inhibitors is evaluated with two different assays:
Determination of proliferation using Cell Proliferation ELISA, BrdU (Roche, Cat. No. 11647229001).
After 24 h of incubation with inhibitors or controls, BrdU is added to the cells. After further incubation for 18 h, the cells are fixed and cellular DNA becomes denatured. […] Substrate solution is added and absorbance at 450 nm is recorded. […]
After 48 h of incubation with inhibitors or controls, the tetrazolium substrate is added to the cells. Substrate turnover by the cells is measured over two hours at 450 nm (using 630 nm was reference wavelength).

| Structure (SMILES) | TG2 activity determined in the cell homogenates (TG2) | no influence on cell proliferation or metabolic activity up to (CaCo2 and Huh7 cells) [mM] |
| --- | --- | --- |
| CCCCCNC(=O)C(=O)CC[C@H](NC(=O)[C@@H]1CCCN1C(C)=O)C(=O)Nc1cccn(CC(=O)NCC(CC)CC)c1=O [Compound E22, (S)-2-((S)-1-acetylpyrrolidine-2-carboxamido)-N1-(1-(2-(2-ethylbutylamino)-2-oxoethyl)-2-oxo-1,2-dihydropyridin-3-yl)-5-oxo-N6-pentylhexanediamide] | decreases |  |
| COC(=O)[C@H](CC(C)C)NC(=O)[C@@H]1CCCN1C(=O)[C@@H](NC(=O)[C@H](CCC(=O)C(N)=O)NC(=O)OCc1ccccc1)C(C)C [Compound E02, (S)-methyl 2-((S)-1-((S)-2-((S)-6-amino-2-(benzyloxycarbonylamino)-5,6-dioxo-hexanamido)-3-methylbutanoyl)pyrrolidine-2-carboxamido)-4-methylpentanoate] |  | > 1 |
| CC(=O)N[C@@H](CCC(=O)C(N)=O)C(=O)N1CCN(c2ccccc2Cl)CC1 [Compound E06, (S)-5-acetamido-6-(4-(2-chlorophenyl)piperazin-1-yl)-2,6-dioxohexanamide] | decreases |  |
